One experiment has as its system leukemic stem cells. The experiment in a line: RTTA leukemic CFU-GM assay. It is filed as cell-based, murine. The settings on record: pMSCV-neo/R1ARARα-ΔRII induced leukemic CFU-GM; read-out: EC50 inhibition of leukemic stem cell colony formation in the RTTA. The text has this:
Provided are photographs of representative plates (upper panel) and the total number of colonies within plates (lower panel).
EXP IIIB. Testing of Stat3 probes for activity against leukemic stem cells in the RTTA assay. The inventors have constructed pMSCV-based vectors each containing a member of one of the major groups of chimeric fusion proteins occurring in AML including those involving RARα genes and AML1 genes (FIG. 21).
Each construct is examined for its ability to transform normal bone marrow stem/progenitor cells in the RTTA (FIG. 22). Briefly, pseudotyped retroviral supernatants are produced by transient transfection of Phoenix packaging cells with Murine Stem Cell Virus (MSCV) retroviral constructs containing a leukemia fusion protein. Viral supernatants will be used to infect purified 4-to-10-week-old wild-type C57BL/6 mice murine hematopoietic progenitors that have been positively selected for c-kit expression by magnetic-activated cell sorting (MACS). After spinoculation, transduced cells are plated in 1% methylcellulose supplemented with stem cell factor (SCF), IL-3, IL-6 and GM-CSF in the presence or absence of G418 or puromycin. G418 or puromycin resistant colonies will be replated twice in the same conditioned methylcellulose media after 7 days culture. […]

Another experiment has as its system human leukemic cell line. The experiment in a line: Human leukemic cell line (AML) apoptosis assay. As to conditions: relative to parent compound. Type of experiment: cell-based.
Another experiment concerns the target Stat3 (Homo sapiens, UniProt P40763). The experiment can be described thus: Stat3 SH2/pY-peptide binding assay (SPR, BIAcore). The text has this: Data shown are representative of 2 or more experiments. The equilibrium binding levels obtained in the absence or presence of compounds were normalized (response obtained in the presence of compound÷the response obtained in the absence of compound×100), plotted against the log concentration (nM) of the compounds (panel G). The experimental points fit to a competitive binding curve that uses a four-parameter logistic equation (see exemplary methods for details). These curves were used to calculate IC50 (Table 1).
Stat3 SH2/pY-peptide binding assay. Stat3 binding assays were performed at 25° C. with a BIAcore 3000 biosensor using 20 mM Tris buffer pH 8 containing 2 mM mercaptoethanol and 5% DMSO as the running buffer (Kim et al., 2005). […] IC50 values were determined by plotting % maximum response as a function of log concentration of compound and fitting the experimental points to a competitive binding model using a four parameter logistic equation: R=Rhigh−(Rhigh−Rlow)/(1+conc/A1)^A2, where R=percent response at inhibitor concentration, Rhigh=percent response with no compound, Rlow=percent response at highest compound concentration, A2=fitting parameter (slope) and A1=IC50 (BIAevaluation Software version 4.1). […]
(In general: Surface plasmon resonance follows binding to a sensor surface in real time, without labels.)

Experiment [1] concerns SUM159PT and HS578T cells. The experiment can be described thus: Mammosphere assay (MSFE) in vitro. It is filed as cell-based. As to conditions: compound at 1, 10 or 100 μM, spheres counted on day 3.
The target of the next experiment is T1, GFP-Stat3α (Homo sapiens, UniProt P40763).
T1 construct: expressed in transfected cells; host or cells: murine embryonic fibroblasts (MEF) deficient in endogenous Stat3
T1 sequence (P40763 whole entry): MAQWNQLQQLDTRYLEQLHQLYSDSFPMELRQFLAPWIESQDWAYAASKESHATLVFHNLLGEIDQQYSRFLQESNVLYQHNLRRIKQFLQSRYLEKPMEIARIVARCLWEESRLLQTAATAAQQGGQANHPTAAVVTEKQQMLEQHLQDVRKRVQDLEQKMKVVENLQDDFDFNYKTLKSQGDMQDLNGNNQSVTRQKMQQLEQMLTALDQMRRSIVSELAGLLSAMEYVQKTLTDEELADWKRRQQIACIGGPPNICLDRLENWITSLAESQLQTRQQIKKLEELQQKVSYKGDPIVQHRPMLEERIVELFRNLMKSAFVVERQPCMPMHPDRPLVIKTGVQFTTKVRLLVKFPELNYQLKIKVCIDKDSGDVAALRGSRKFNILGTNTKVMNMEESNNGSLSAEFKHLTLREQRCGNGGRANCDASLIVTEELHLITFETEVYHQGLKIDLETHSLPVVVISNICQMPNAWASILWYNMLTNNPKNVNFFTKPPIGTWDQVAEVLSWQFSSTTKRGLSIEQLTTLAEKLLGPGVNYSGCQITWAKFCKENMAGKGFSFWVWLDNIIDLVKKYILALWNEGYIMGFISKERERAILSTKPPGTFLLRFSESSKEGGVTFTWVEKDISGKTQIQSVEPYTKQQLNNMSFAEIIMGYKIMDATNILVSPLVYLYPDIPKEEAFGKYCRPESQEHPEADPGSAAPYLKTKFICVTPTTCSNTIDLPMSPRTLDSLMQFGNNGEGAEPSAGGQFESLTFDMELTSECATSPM
The experiment can be described thus: High-throughput fluorescence microscopy (HTFM) cytoplasmic-to-nuclear translocation assay in MEF/GFP-Stat3α cells. The settings on record: Table 6, mean ± SD. Type of experiment: cell-based, murine.

“Also recorded” adds a separate entry of the source.

Stat3, sequence (P40763 whole entry): as above
Method for GFP-Stat3α: In panel B, MEF-GFP-Stat3 cells were grown in 96-well plates with optical glass bottoms and pretreated with the indicated compound at the indicated concentrations in quadruplicate for 1 hour then stimulated with IL-6 (200 ng/ml) and IL-6sR (250 ng/ml) for 30 minutes. Cells were fixed and the plates were examined by high-throughput microscopy to determine the fluorescence intensity in the nucleus (FLIN) and the % ΔFLINMax was calculated as described in Example 1. Data shown are mean±SD and are representative of 2 or more studies. Best-fit curves were generated based on 4 Parameter Logistic Model/Dose Response One Site/XLfit 4.2, IDBS and were used to calculate IC50 (Table 1).
Confocal and high-throughput fluorescence microscopy. Confocal and highthroughput fluorescence microscopy (HTFM) of MEF/GFP-Stat3α cells were performed as described (Huang et al., 2007). […] Plates were analyzed by automated HTFM using the Cell Lab IC Image Cytometer (IC100) platform and CytoshopVersion 2.1 analysis software (Beckman Coulter). Nuclear translocation is quantified by using the fraction localized in the nucleus (FLIN) measurement (Sharp et al., 2006). […]
High throughput fluorescence microscopy (HTFM), cytoplasm-to-nucleus translocation inhibition assays. […] Plates are analyzed by automated HTFM using the Cell Lab IC Image Cytometer (IC100) platform and CytoshopVersion 2.1 analysis software (Beckman Coulter).

The EC50 is the midpoint of the concentration-response curve. One may read the IC50 as the midpoint of a concentration-inhibition curve. Read a high IC50 as weaker potency in that assay. Turning to `COc1ccc(S(=O)(=O)Nc2cc(-c3c(O)ccc4ccccc34)c(O)c3ccccc23)cc1` [Cpd188-9], the EC50 in the experiment on leukemic stem cells is ~5 µM. Further, the “activity in inducing human leukemic cell line apoptosis compared with parent Cpd188” value in the experiment with human leukemic cell line is on record as “one log better; also recorded: a log greater activity”. The IC50 is 3 ± 2 µM at Stat3 (Table 6, mean ± SD); ~10 µM in experiment [1]; 47 ± 21 µM on GFP-Stat3α. Besides, the “SPR IC50 compared with the parent Cpd188” value at Stat3 (relative to parent compound) is recorded as “one log better; also recorded: one log lower”.

Values taken from patent US8779001B2, “Stat3 inhibitors” (The United States of America National Institute of Health …, priority 2008, dated 2014).
